Experimental data from patent US20140179681A1, “METHODS AND COMPOSITIONS OF TARGETED DRUG DEVELOPMENT” (priority 2010, published 2014).
Structures can show the parent of a compound that is named as a salt. Where two headings read alike, the source gives them in different places.

Legend:
MDBK line = assay: MTT Cell Proliferation Assay, MDBK cells; format: cell-based, bovine
Outline: (§1)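 Each concentration ran in quadruplicate across duplicate plates, with compounds serially diluted in DMSO and delivered at 0.5% DMSO in 0.5% FBS medium for 3 days.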

[1] = test system: epithelial carcinoma A431 cell line; assay: MTT Cell Proliferation Assay, A431 cells; format: cell-based; conditions: for MTT Assay IC50(A431/MDBK): ratio in parentheses: ratio MDBK IC50 / A431 IC50 (selectivity)
Outline: as §1

EGFR = target: T1, EGFR (Homo sapiens, UniProt P00533); assay: EGFR in-cell Western (ICW) screening protocol (EGFR inhibition assay); format: cell-based; set-up: ICW 1 / ICW 2 / ICW Avg: unit not given here; conditions: for ICW Avg / ICW 1 / ICW 2: ICW assay; for ICW Avg: average of runs 1 and 2; for ICW 1: run 1; for ICW 2: run 2; for ICW assay: Table 10
T1 construct: host or cells: A431
Outline: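 In-cell Western read-out: fixed A431 cells were co-stained for total EGFR and phospho-EGFR (Tyr1173; some runs Tyr1045). Before fixation, cells were serum-starved for 2 h, exposed to compound for 4 h, then given EGF for 10 min, usually at 10 ng/ml final (6.6 or 12.5 ng/ml in some runs).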

[2] = second value of 'a/b (c)', taken as MDBK cells, read-out: MTT Screen, second value of cell
[3] = Homo sapiens, A-431, first value of 'a/b (c)', taken as A431 cells, read-out: MTT Screen, first value of cell
[4] = Bos taurus, MDBK, MDBK cells, second value of cell, read-out: MTT Assay IC50(A431/MDBK): MDBK
[5] = Homo sapiens, A-431, A431 cells, first value of cell, read-out: MTT Assay IC50(A431/MDBK): A431
[6] = Bos taurus, MDBK, 72 h, Table 10, second of x/y(ratio): MDBK, three day treatment, unit not printed (doses in μM), read-out: MTT assay (second value)
[7] = Homo sapiens, A-431, 72 h, Table 10, first of x/y(ratio): A431, three day treatment, unit not printed (doses in μM), read-out: MTT assay (first value)
[8] = % Inhibition of EGF dependent EGFR phosphorylation in A431 cells, compound 125 μM in assay
[9] = Bos taurus, MDBK, second value of 'a/b (c)', taken as MDBK cells, read-out: MTT Screen, second value of cell

T1 sequence (P00533 25-1210): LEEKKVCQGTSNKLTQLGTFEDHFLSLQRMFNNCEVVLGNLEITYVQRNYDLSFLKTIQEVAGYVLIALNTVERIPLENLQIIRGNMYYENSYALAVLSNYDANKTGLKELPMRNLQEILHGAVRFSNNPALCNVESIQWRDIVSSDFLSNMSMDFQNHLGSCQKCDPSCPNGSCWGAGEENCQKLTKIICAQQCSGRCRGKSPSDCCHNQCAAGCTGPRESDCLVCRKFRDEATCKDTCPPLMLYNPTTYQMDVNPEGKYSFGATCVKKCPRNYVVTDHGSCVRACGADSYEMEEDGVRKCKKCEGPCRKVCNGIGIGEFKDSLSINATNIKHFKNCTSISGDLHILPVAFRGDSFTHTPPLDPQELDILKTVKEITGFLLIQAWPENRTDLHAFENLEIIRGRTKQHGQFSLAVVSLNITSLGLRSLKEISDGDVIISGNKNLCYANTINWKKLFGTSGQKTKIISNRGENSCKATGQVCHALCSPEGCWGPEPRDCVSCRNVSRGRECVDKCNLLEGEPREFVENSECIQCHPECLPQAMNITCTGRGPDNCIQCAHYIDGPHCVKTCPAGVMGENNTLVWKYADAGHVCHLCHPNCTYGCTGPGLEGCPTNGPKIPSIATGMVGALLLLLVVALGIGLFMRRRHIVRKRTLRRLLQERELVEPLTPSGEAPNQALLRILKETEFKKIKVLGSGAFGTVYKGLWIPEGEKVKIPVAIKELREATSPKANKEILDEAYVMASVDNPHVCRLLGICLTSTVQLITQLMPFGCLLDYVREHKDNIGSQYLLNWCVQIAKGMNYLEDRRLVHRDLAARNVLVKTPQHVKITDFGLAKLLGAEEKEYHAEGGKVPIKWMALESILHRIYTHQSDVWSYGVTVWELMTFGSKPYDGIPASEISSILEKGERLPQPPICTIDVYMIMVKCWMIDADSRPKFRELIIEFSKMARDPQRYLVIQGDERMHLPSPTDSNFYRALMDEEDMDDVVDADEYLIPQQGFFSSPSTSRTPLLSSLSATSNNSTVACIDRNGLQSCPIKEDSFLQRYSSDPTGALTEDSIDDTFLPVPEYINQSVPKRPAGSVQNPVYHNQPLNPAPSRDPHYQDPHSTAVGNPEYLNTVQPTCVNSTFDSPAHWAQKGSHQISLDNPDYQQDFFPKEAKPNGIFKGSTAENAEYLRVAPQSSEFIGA

IC50 [1, 5] | MTT Assay IC50(A431/MDBK): ratio in parentheses [1] | ICW Avg (EGFR) | ICW 1 (EGFR) | ICW 2 (EGFR) | SMILES | IC50 (MDBK line; [4]) | further results
 |  |  |  |  | COc1cc(NS(=O)(=O)c2ccc(NC(=S)NC(=O)/C=C/c3ccccc3)cc2)nc(OC)n1 [AD4-11369] |  | IC50 (MDBK line; [2]): 47.2 µM; IC50 [1, 3]: 48.6 µM; ICW Screen (ICW Inhibition) (EGFR): 43.546
5.36 µM | 2.53 | 30.56 | 28.62 | 32.50 | Cc1nc(Nc2nc(CCC(C)C)cc(=O)[nH]2)nc2ccccc12 [compound 11792] | 13.6 µM | 
 |  |  |  |  | Cc1cc(C)cc(NC(=S)Nc2ccc(S(=O)(=O)Nc3ccc(Cl)cc3)cc2)c1 [AD4-12512] |  | IC50 (MDBK line; [6]): 5.83 µM; IC50 [1, 7]: 6.4 µM; ICW assay (EGFR; [8]): 28.9126
 |  |  |  |  | COc1cc(NS(=O)(=O)c2ccc(NC(=S)NC(=O)/C=C/c3ccc(C)cc3)cc2)nc(OC)n1 [AD4-11874] |  | IC50 (MDBK line; [9]): 39 µM; IC50 [1, 3]: 35 µM; ICW Screen (ICW Inhibition) (EGFR): 32.474
14 µM | 1.59 | 26.08 | 22.54 | 29.61 | Cc1nc(Nc2nc(=O)cc(-c3ccccc3)[nH]2)nc2c(C)cccc12 [compound 11624] | 22.4 µM | 
11.7 µM | 0.75 | 26.02 | 17.06 | 34.97 | Cc1cc2nc(Nc3nc(=O)c(C)c(C)[nH]3)nc(C)c2cc1C [12630 + TFA] | 8.75 µM | 
6.71 µM | 2.83 | 32.21 | 25.88 | 38.53 | CCc1ccc2nc(Nc3nc(-c4cccc(OC)c4)cc(=O)[nH]3)nc(C)c2c1 [compound 11503] | 19 µM | 
 |  |  |  |  | O=S(=O)(Nc1ccc(Cl)cc1)c1ccc(NC(=S)Nc2cccc(C(F)(F)F)c2)cc1 [AD4-12423] |  | IC50 (MDBK line; [6]): 5.77 µM; IC50 (MDBK line; Table 10, second of x/y(ratio): MDBK, three day treatment, unit not printed (doses in μM), read-out: MTT assay (second value)): 2.92 µM; IC50 [1, 7]: 6.35 µM; IC50 ([1]; Table 10, first of x/y(ratio): A431, three day treatment, unit not printed (doses in μM), read-out: MTT assay (first value)): 4.23 µM; ICW assay (EGFR; [8]): 129.155
14.5 µM | 0.69 | 38.91 | 47.15 | 30.67 | CCCCCc1c(C)nc(Nc2nc(C)c3ccc(C)cc3n2)[nH]c1=O [11730 + TFA] | 10.1 µM | 
1.29 µM |  | 56.08 | 58.11 | 54.06 | Cc1ccc2nc(Nc3nc(=O)cc(-c4ccccc4)[nH]3)nc(C)c2c1 [compound 11601] | 2.62 µM | IC50 (MDBK line; Bos taurus, MDBK, MDBK cells, normalized, read-out: MTT Assay IC50 (normalized): MDBK): 2.61 µM; IC50 (MDBK line; Bos taurus, MDBK, follow-up MTT, MDBK cells, second value, read-out: MTT Follow-up: MDBK): 48.6 µM; IC50 ([1]; Homo sapiens, A-431, A431 cells, normalized, read-out: MTT Assay IC50 (normalized): A431): 0.738 µM; IC50 ([1]; Homo sapiens, A-431, follow-up MTT, A431 cells, first value, read-out: MTT Follow-up: A431): 3.67 µM; MTT Follow-up: ratio in parentheses ([1]; follow-up MTT, ratio MDBK/A431): 13.23
 |  |  |  |  | CCc1nnc(NS(=O)(=O)c2ccc(NC(=S)NC(=O)/C=C/c3ccc(OC)cc3)cc2)s1 [AD4-11637] |  | IC50 (MDBK line; [9]): 17.8 µM; MTT Screen, first value of cell ([1]; first value of 'a/b (c)', taken as A431 cells): non- conver- gent; ICW Screen (ICW Inhibition) (EGFR): 33.491
 |  |  |  |  | COc1ccc(NC(=S)Nc2ccc(S(=O)(=O)Nc3ccc(Cl)c(Cl)c3)cc2)cc1OC [AD4-12246] |  | IC50 (MDBK line; [6]): 8.01 µM; IC50 [1, 7]: 8.36 µM; ICW assay (EGFR; [8]): 38.3844
 |  |  |  |  | O=C(NC(=S)Nc1ccc(S(=O)(=O)NC2CCCCC2)cc1)C1CC1 [AD4-12171] |  | IC50 (MDBK line; [9]): 37.1 µM; IC50 [1, 3]: 38.9 µM; ICW Screen (ICW Inhibition) (EGFR): 37.375
 |  |  |  |  | Cc1cc(NS(=O)(=O)c2ccc(NC(=S)NC(=O)/C=C/c3ccccc3)cc2)no1 [AD4-12273] |  | IC50 (MDBK line; [2]): 42.9 µM; IC50 ([1]; first value of 'a/b (c)', taken as A431 cells, read-out: MTT Screen, first value of cell): 31.7 µM; ICW Screen (ICW Inhibition) (EGFR): 33.104
 |  |  |  |  | CCc1ccc(NC(=S)Nc2ccc(S(=O)(=O)Nc3ccccc3)cc2)cc1 [AD4-12854] |  | IC50 (MDBK line; [6]): 8.19 µM; IC50 [1, 7]: 6.64 µM; ICW assay (EGFR; [8]): 38.7055
 |  |  |  |  | O=c1cc(CN2CCN(Cc3ccc4c(c3)OCO4)CC2)c2cc3c(cc2o1)CCC3 [AD4-10179] |  | IC50 (MDBK line; Bos taurus, MDBK, Table 11, second of x/y(ratio): MDBK, unit not printed (doses in μM), read-out: MTT Screen (second value)): 13.9 µM; IC50 ([1]; Homo sapiens, A-431, 72 h, Table 11, first of x/y(ratio): A431, unit not printed (doses in μM), read-out: MTT Screen (first value)): 13.2 µM; ICW Screen (EGFR; Table 11, % Inhibition of EGF dependent EGFR phosphorylation in A431 cells, compound 125 μM in assay): 34.742
26.3 µM | 0.30 | 25.61 | 25.11 | 26.12 | CCc1ccc2nc(Nc3nc(=O)cc(CSc4nc5ccccc5s4)[nH]3)nc(C)c2c1 [11300 + TFA] | 7.95 µM | 
